Results on 36 molecules are retold here after patent publication US5668165A, “Small molecule inhibition of RNA/ligand binding” (Scriptgen Pharmaceuticals, Inc., priority 1995, dated 1997).

“Also recorded” adds a separate entry of the source. Read-outs that look alike come from different tables or passages of the source. Starred links: 1 amine or outer side, 2 acyl side, 3 side chain; linkers in the order of their positions; H or OH if unused. Positions of bridges follow the written chain, without caps; N, C: chain ends. Non-standard residues stand in square brackets, D forms with d. Residues, ends and D or L forms follow the SMILES beside them. *: point of attachment. X1 = NC1=N[C@@H]([C@H](N[*:1])C(=O)[*:2])C[C@H](O)N1; ΔAla(Z-3-ureido) = NC(=O)N/C=C(\N)C(=O)O; β3hOrn = NCCC[C@H](N)CC(=O)*; Dap = NC[C@H](N)C(=O)O

For experiment [1], the target named is T1, binding of HIV Rev protein to the HIV RRE (Human immunodeficiency virus type 1 group M subtype B, UniProt P04618).
T1 construct: made in house; host or cells: E. coli
The experiment in a line: Rev-RRE nitrocellulose filter-binding assay. The conditions noted are these: for IC50: read-out: IC50 against Rev/RRE binding. As to the method: A 69-nt ^32 P-labelled RNA probe containing a high affinity Rev-binding site (Bartel et al., Cell 67:529, 1991 ) was incubated with purified E. coli-derived Rev protein in the absence and presence of increasing concentrations of Compound 15. Reactions conditions were those that maximize the specificity of the interaction between Rev and the RRE, i.e., 150 mM KCl and a 100-fold molar excess of tRNA.
After a 30-minute incubation at room temperature, a nitrocellulose filter-binding assay was performed to quantify the binding of Rev to the RRE (Daly et al., Biochem. 32:10497, 1993). In this assay, RNA is retained on the filter only by virtue of binding to Rev. Filter-associated radioactivity was quantified in a Wallac Microbeta counter. The fraction of input RNA retained on the filter was plotted as a function of Compound 15 concentration, and the IC50 (the concentration required to inhibit 50% Rev-RRE binding) was determined by linear regression.

The test system of experiment [2] is binding of Rev to the RRE (67-nt RNA probe containing a high affinity Rev-binding site). Set-up: species or system HIV. The note with it: for ability to inhibit Rev binding (inhibitory at any concentration tested): 67-nt 32P-labeled RNA probe, gel mobility shift; for concentration at which inhibitory to Rev binding: third group of aminoglycosides; for inhibiting the binding of Rev to the RRE: Rev/RRE binding inhibition assay, summary of thirteen 2-DOS aminoglycosides. As to the method:
To test whether antibiotics can block binding of Rev to the RRE, a 67-nt ^32 P-labeled RNA probe containing a high affinity Rev-binding site was incubated with purified E. coli derived Rev protein in the presence of various antibiotics. Binding of Rev to the RNA probe was quanitified by an RNA gel mobility shift assay.

The mark [3] stands for this setting: Table 2, 2,5-Bis(3-amidinophenyl)furans.
Where [4] appears, read: Table 3, 2,5-Bis(3-bisamidinophenyl)thiophene.

T1 sequence (P04618 whole entry, looked up): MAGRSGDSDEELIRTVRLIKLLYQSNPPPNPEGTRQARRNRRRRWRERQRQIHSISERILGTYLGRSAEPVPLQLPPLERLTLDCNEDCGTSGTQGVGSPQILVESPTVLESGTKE

Regarding `CN(C)CCCCNC(=N)c1cccc(-c2ccc(-c3cccc(C(=N)NCCCCN(C)C)c3)o2)c1` [Example 17, 2,5-Bis[3-(4-N,N-dimethylaminobutyl-amidino)phenyl]furan], the IC50 in experiment [1] (setting [3]) is 1700 nM. On to `NCCC[C@H](N)CC(=O)N[C@H]1CNC(=O)[C@H]([C@H]2C[C@H](O)NC(N)=N2)NC(=O)/C(=C/NC(N)=O)NC(=O)[C@H](CO)NC(=O)[C@H](CO)NC1=O` [viomycin] (β3hOrn-[Dap]SS[ΔAla(Z-3-ureido)][X1]; lactam 1-C), for which the “ability to inhibit Rev binding (inhibitory at any concentration tested)” value (from here on “ability to inhibit Rev binding”) in experiment [2] is on record as “no”.

Turning to `[H]/N=C(/N)N[C@H]1[C@H](O)[C@@H](O)[C@H](O[C@@H]2O[C@@H](C)[C@](O)(C=O)[C@H]2O[C@@H]2O[C@@H](CO)[C@H](O)[C@@H](O)[C@@H]2NC)[C@@H](N/C(N)=N\[H])[C@@H]1O` [stretomycin, streptomycin], the “ability to inhibit Rev binding” value in experiment [2] was “no inhibitory activity at any concentration tested”; in experiment [2] (listed as streptomycin) it was “inactive”.

Consider `CC[C@H]1OC(=O)[C@H](C)[C@@H](O[C@H]2C[C@@](C)(OC)[C@@H](O)[C@H](C)O2)[C@H](C)[C@@H](O[C@@H]2O[C@H](C)C[C@H](N(C)C)[C@H]2O)[C@](C)(O)C[C@@H](C)C(=O)[C@H](C)[C@@H](O)[C@]1(C)O` [erythromycin], for which, in experiment [2], the “ability to inhibit Rev binding” value is recorded as “no”.

In the case of `CCN(CC)CCCNC(=N)c1cccc(-c2ccc(-c3cccc(C(=N)NCCCN(CC)CC)c3)o2)c1` [Example 16, 2,5-Bis[3-N,N-diethylaminopropylamidinophenyl]furan], the IC50 in experiment [1] (setting [3]) came to 750 nM. With `NCC[C@H](O)C(=O)N[C@@H]1C[C@H](N)[C@@H](O[C@H]2O[C@H](CN)[C@@H](O)[C@H](O)[C@H]2O)[C@H](O)[C@H]1O[C@H]1O[C@H](CO)[C@@H](O)[C@H](N)[C@H]1O` [amikacin], the “concentration at which inhibitory to Rev binding” value (shortened to “concentration at which inhibitory”) in experiment [2] (67-nt RNA probe) was determined as 100 μm. The “inhibiting the binding of Rev to the RRE” value in experiment [2] was “effective”.

For the molecule `O=C(N[C@H](CO)[C@H](O)c1ccc([N+](=O)[O-])cc1)C(Cl)Cl` [chloramphenicol], in experiment [2], the “ability to inhibit Rev binding” value is “no”. As to `NC[C@H]1O[C@H](O[C@H]2[C@H](O[C@@H]3O[C@H](CO)[C@@H](O)[C@H]3O)[C@@H](O)[C@H](N)C[C@@H]2N)[C@H](N)[C@@H](O)[C@@H]1O` [ribostamycin], the “concentration at which inhibitory” value in experiment [2] (67-nt RNA probe) was determined as 100 μm. In addition, the “inhibiting the binding of Rev to the RRE” value in experiment [2] is given as “effective”. In the case of `CN[C@@H]1[C@H](O[C@H]2[C@H](O[C@H]3[C@H](O)[C@@H](O)[C@H](NC(=N)N)[C@@H](O)[C@@H]3NC(=N)N)O[C@@H](C)[C@]2(O)CO)O[C@@H](CO)[C@H](O)[C@H]1O` [dihydrostreptomycin], the “ability to inhibit Rev binding” value in experiment [2] is reported as “no inhibitory activity at any concentration tested”. Regarding `CCC[C@@H]1C[C@@H](C(=O)N[C@@H]([C@H]2O[C@H](SC)[C@H](O)[C@@H](O)[C@H]2O)[C@@H](C)O)N(C)C1` [lincomycin], in experiment [2], the “ability to inhibit Rev binding” value was “no”.

Turning to `CCN(CC)CCCNC(=N)c1cccc(-c2ccc(-c3cccc(C(=N)NCCCN(CC)CC)c3)s2)c1` [Example 22, 2,5-Bis-[3-(3-N,N-diethylaminopropyl-amidino)phenyl]thiophene], the IC50 in experiment [1] (setting [4]) was 2800 nM. Regarding vineomycin, the “ability to inhibit Rev binding” value in experiment [2] was “no”. In the case of butirosin, the “ability to inhibit Rev binding” value in experiment [2] is given as “no inhibitory activity at any concentration tested”. In the case of `CC1CCCCN1CCCNC(=N)c1cccc(-c2ccc(-c3cccc(C(=N)NCCCN4CCCCC4C)c3)s2)c1` (stereo not shown) [Example 25, 2,5-Bis{3-[3-(2-methylpiperidino)-propylamidino]phenyl}thiophene], the IC50 in experiment [1] (setting [4]) worked out at 4000 nM. Regarding `CN[C@@H]1[C@@H](O)[C@@H](O[C@@H]2[C@@H](O)[C@H](O[C@H]3OC(CN)=CC[C@H]3N)[C@@H](N)C[C@H]2N)OC[C@]1(C)O` [sisomicin], the “concentration at which inhibitory” value in experiment [2] (67-nt RNA probe) came out at 100 μm. In experiment [2], the “inhibiting the binding of Rev to the RRE” value is “effective”. `CN(C)CCCCCCNC(=N)c1cccc(-c2ccc(-c3cccc(C(=N)NCCCCCCN(C)C)c3)o2)c1` [Example 18, 2,5-Bis[3-(6-N,N-dimethylaminohexylamidino)phenyl]furan]: in experiment [1] (setting [3]), the IC50 was found to be 3900 nM.

Take gentamicin C: the “concentration at which inhibitory” value in experiment [2] (67-nt RNA probe) worked out at 100 μm. In addition, in experiment [2], the “inhibiting the binding of Rev to the RRE” value is recorded as “effective”. `N=C(NCc1cccnc1)c1cccc(-c2ccc(-c3cccc(C(=N)NCc4cccnc4)c3)s2)c1` [Example 20, 2,5-Bis[3-pyridylmethylamidinophenyl]thiophene]: the “IC50 against Rev/RRE binding” value in experiment [1] (setting [4]) is reported as “not active”. Regarding `CN[C@H]1C[C@@H](N)[C@H](O)[C@@H](O[C@@H]2O[C@H](CO)[C@H](O)[C@@H]3OC4(O[C@H]23)O[C@H]([C@@H](N)CO)[C@H](O)[C@H](O)[C@H]4O)[C@@H]1O` (stereo partly shown) [hygromyoin B, hygromycin B], the “ability to inhibit Rev binding” value in experiment [2] is “no inhibitory activity at any concentration tested”. For the molecule `CN1CCCC1CCNC(=N)c1cccc(-c2ccc(-c3cccc(C(=N)NCCC4CCCN4C)c3)s2)c1` (stereo not shown) [Example 21, 2,5-Bis{3-[2-(1-methyl-2-pyrrolidinyl)ethylamidino]phenyl}thiophene], in experiment [1] (setting [4]), the IC50 is 2400 nM. Take `C[C@H]1O[C@H](O[C@H]2[C@H](O)[C@@H](O)[C@@H](O)[C@H](O)[C@@H]2O)[C@@H](N)C[C@@H]1NC(=N)C(=O)O` [kasugamycin]: the “ability to inhibit Rev binding” value in experiment [2] is given as “no inhibitory activity at any concentration tested”. Still for that read-out and setting: the result for thiostreption reads “no”. On to `NC[C@@H]1O[C@H](O[C@H]2[C@@H](O)[C@H](O[C@@H]3[C@@H](O)[C@H](N)C[C@H](N)[C@H]3O[C@H]3O[C@H](CO)[C@@H](O)C[C@H]3N)O[C@@H]2CO)[C@H](N)[C@@H](O)[C@@H]1O[C@H]1O[C@H](CO)[C@@H](O)[C@H](O)[C@@H]1O` [lividomycin A], for which, in experiment [2], the “ability to inhibit Rev binding” value is reported as “significant inhibitory ability” and the “inhibiting the binding of Rev to the RRE” value is “exceptional inhibitory potential”. In addition, in experiment [2] (67-nt RNA probe, neomycin B: complete inhibition), the “concentration that achieves inhibition of Rev binding” value was 10 µM. Regarding `CN(C)[C@@H]1C(=O)C(C(N)=O)=C(O)[C@@]2(O)C(=O)C3=C(O)c4c(O)cccc4[C@@](C)(O)[C@H]3C[C@@H]12` [tetracycline], the “ability to inhibit Rev binding” value in experiment [2] is “no”. Still for that read-out and setting: the result for capreomycin reads “no”. As to tunicamycin, the “ability to inhibit Rev binding” value in experiment [2] is on record as “no”. With `NC[C@H]1O[C@H](O[C@H]2[C@H](O)[C@@H](O[C@H]3O[C@H](CO)[C@@H](O)[C@H](N)[C@H]3O)[C@H](N)C[C@@H]2N)[C@H](N)[C@@H](O)[C@@H]1O` [kanamycin B], the “concentration at which inhibitory” value in experiment [2] (67-nt RNA probe) is listed as 100 μm. In addition, the “inhibiting the binding of Rev to the RRE” value in experiment [2] is reported as “effective”. Turning to `NC[C@@H]1O[C@H](O[C@H]2[C@@H](O)[C@H](O[C@@H]3[C@@H](O)[C@H](N)C[C@H](N)[C@H]3O[C@H]3O[C@H](CO)[C@@H](O)[C@H](O)[C@H]3N)O[C@@H]2CO)[C@H](N)[C@@H](O)[C@@H]1O` [paromomycin], in experiment [2], the “ability to inhibit Rev binding” value is “no inhibitory activity at any concentration tested; also recorded: completely inactive”.

With `CN[C@@H]1[C@H](O)[C@H](NC)[C@H]2O[C@@]3(O)C(=O)C[C@@H](C)O[C@H]3O[C@@H]2[C@H]1O` [specitinomycin], the “ability to inhibit Rev binding” value was “no inhibitory activity at any concentration tested” in experiment [2] and “inactive” in experiment [2] (listed as spectinoymycin). Take `CC1(C)S[C@@H]2[C@H](NC(=O)[C@H](N)c3ccccc3)C(=O)N2[C@H]1C(=O)O` [ampicilin]: the “ability to inhibit Rev binding” value in experiment [2] is on record as “no”. Still for that read-out and setting: then olivomycin, with “no”.

Take `CC1(C)S[C@@H]2[C@H](NC(=O)C(C(=O)O)c3ccccc3)C(=O)N2[C@H]1C(=O)O` (stereo partly shown) [carbenicilin]: the “ability to inhibit Rev binding” value in experiment [2] was “no”. On to `NC[C@H]1O[C@H](O[C@H]2[C@H](O)[C@@H](O)[C@H](N)C[C@@H]2N)[C@H](N)[C@@H](O)[C@@H]1O` [neamine], for which, in experiment [2] (67-nt RNA probe), the “concentration at which inhibitory” value came out at 100 μm. The “inhibiting the binding of Rev to the RRE” value in experiment [2] was “effective”. In the case of `Cn1cc(NC(=O)c2cc(NC(=O)c3cc(NC=O)cn3C)cn2C)cc1C(=O)NCCC(=N)N` [distamycin A], the “ability to inhibit Rev binding” value in experiment [2] is “no”. On the same count and under the same terms, then chromomycin A, with “no”. Still for that read-out and setting: the result for `CCC[C@@H]1C[C@@H](C(=O)N[C@@H]([C@H]2O[C@H](SC)[C@H](O)[C@@H](O)[C@H]2O)[C@H](C)Cl)N(C)C1` [clindamycin A] reads “no”.
